From the kinase profiling compilation of Christmann-Franck et al. (2016)
Values joined by “and” are separate entries in the source; they are usually repeats but may differ in a detail not shown here. Equal values may be shown once.

How the values were obtained:
Assay in all cases: radiometric filter-binding kinase assay, Kinase HotSpot
Conditions in all cases: compound 0.5 µM; ATP 10 µM
ABL1 (human) = ABL1 (human) (UniProt P00519)
ACVRL1 (human) = ACVRL1 (human) (UniProt P37023)
AURKB (human) = AURKB (human) (UniProt Q96GD4)
Sequence of AURKB (human) (Q96GD4 whole entry, looked up): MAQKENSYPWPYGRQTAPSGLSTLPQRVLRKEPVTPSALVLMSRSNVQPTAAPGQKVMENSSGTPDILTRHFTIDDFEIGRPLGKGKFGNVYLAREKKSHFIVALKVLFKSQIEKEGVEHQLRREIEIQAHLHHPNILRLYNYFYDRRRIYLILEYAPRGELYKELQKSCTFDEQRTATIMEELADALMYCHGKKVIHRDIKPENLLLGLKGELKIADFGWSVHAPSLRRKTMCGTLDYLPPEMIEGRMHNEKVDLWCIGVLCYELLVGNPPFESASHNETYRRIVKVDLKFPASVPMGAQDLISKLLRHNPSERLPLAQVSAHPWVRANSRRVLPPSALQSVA

CAMK1D (human) = CAMK1D (human) (UniProt Q8IU85)
CDK5 CDK5R1 p35 (human) = CDK5 CDK5R1 p35 (human) (UniProt Q00535+Q15078)
CDK6 CCND3 (human) = CDK6 CCND3 (human) (UniProt P30281+Q00534)
CLK3 (human) = CLK3 (human) (UniProt P49761)
Sequence of CLK3 (human) (P49761 whole entry, looked up): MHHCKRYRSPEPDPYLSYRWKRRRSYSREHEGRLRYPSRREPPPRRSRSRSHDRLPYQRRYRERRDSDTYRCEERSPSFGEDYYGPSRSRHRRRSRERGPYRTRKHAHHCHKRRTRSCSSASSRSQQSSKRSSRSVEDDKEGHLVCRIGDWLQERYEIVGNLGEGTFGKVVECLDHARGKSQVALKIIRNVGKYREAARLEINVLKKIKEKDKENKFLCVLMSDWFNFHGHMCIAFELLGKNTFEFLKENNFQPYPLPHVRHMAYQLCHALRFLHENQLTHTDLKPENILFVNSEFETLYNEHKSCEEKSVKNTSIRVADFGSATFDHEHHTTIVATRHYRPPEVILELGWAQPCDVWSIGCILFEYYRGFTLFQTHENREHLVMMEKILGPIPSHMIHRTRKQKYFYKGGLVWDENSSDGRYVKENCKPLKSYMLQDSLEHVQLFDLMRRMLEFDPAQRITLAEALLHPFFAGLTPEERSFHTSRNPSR

CSNK1G3 (human) = CSNK1G3 (human) (UniProt Q9Y6M4)
Sequence of CSNK1G3 (human) (Q9Y6M4 whole entry, looked up): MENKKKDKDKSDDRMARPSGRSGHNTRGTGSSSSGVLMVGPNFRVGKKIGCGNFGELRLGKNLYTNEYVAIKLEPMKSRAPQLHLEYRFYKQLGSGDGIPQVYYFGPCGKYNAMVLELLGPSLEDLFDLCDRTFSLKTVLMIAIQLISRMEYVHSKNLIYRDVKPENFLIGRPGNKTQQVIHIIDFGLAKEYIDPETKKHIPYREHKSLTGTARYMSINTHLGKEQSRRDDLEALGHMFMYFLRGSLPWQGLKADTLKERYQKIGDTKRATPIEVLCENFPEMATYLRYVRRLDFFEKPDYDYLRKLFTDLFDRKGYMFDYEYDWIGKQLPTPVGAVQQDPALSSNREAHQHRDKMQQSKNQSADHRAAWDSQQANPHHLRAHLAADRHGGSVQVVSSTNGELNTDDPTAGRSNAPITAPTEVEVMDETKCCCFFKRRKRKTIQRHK

EGFR (human) = EGFR (human) (UniProt P00533)
EPHA5 (human) = EPHA5 (human) (UniProt P54756)
EPHB2 (human) = EPHB2 (human) (UniProt P29323)
HCK (human) = HCK (human) (UniProt P08631)
IGF1R (human) = IGF1R (human) (UniProt P08069)
[1] = biological target: JAK1 JH1 catalytic (human) (UniProt P23458)
LYN (human) = LYN (human) (UniProt P07948)
MAP3K10 (human) = MAP3K10 (human) (UniProt Q02779)
MAP3K11 (human) = MAP3K11 (human) (UniProt Q16584)
MAP3K14 (human) = MAP3K14 (human) (UniProt Q99558)
MAP3K3 (human) = MAP3K3 (human) (UniProt Q99759)
MAP3K9 (human) = MAP3K9 (human) (UniProt P80192)
MAP4K2 (human) = MAP4K2 (human) (UniProt Q12851)
MAP4K5 (human) = MAP4K5 (human) (UniProt Q9Y4K4)
MAPKAPK3 (human) = MAPKAPK3 (human) (UniProt Q16644)
MARK4 (human) = MARK4 (human) (UniProt Q96L34)
PDGFRA (human) = PDGFRA (human) (UniProt P16234)
PIM2 (human) = PIM2 (human) (UniProt Q9P1W9)
PKN2 (human) = PKN2 (human) (UniProt Q16513)
PLK2 (human) = PLK2 (human) (UniProt Q9NYY3)
PRKCA (human) = PRKCA (human) (UniProt P17252)
PRKCB2 (human) = PRKCB2 (human) (UniProt P05771)
PRKD1 (human) = PRKD1 (human) (UniProt Q15139)
PRKG1 (human) = PRKG1 (human) (UniProt Q13976)
RPS6KA4 KD2 (human) = RPS6KA4 KD2 (human) (UniProt O75676)
RPS6KB2 (human) = RPS6KB2 (human) (UniProt Q9UBS0)
SLK (human) = SLK (human) (UniProt Q9H2G2)
Sequence of SLK (human) (Q9H2G2 whole entry, looked up): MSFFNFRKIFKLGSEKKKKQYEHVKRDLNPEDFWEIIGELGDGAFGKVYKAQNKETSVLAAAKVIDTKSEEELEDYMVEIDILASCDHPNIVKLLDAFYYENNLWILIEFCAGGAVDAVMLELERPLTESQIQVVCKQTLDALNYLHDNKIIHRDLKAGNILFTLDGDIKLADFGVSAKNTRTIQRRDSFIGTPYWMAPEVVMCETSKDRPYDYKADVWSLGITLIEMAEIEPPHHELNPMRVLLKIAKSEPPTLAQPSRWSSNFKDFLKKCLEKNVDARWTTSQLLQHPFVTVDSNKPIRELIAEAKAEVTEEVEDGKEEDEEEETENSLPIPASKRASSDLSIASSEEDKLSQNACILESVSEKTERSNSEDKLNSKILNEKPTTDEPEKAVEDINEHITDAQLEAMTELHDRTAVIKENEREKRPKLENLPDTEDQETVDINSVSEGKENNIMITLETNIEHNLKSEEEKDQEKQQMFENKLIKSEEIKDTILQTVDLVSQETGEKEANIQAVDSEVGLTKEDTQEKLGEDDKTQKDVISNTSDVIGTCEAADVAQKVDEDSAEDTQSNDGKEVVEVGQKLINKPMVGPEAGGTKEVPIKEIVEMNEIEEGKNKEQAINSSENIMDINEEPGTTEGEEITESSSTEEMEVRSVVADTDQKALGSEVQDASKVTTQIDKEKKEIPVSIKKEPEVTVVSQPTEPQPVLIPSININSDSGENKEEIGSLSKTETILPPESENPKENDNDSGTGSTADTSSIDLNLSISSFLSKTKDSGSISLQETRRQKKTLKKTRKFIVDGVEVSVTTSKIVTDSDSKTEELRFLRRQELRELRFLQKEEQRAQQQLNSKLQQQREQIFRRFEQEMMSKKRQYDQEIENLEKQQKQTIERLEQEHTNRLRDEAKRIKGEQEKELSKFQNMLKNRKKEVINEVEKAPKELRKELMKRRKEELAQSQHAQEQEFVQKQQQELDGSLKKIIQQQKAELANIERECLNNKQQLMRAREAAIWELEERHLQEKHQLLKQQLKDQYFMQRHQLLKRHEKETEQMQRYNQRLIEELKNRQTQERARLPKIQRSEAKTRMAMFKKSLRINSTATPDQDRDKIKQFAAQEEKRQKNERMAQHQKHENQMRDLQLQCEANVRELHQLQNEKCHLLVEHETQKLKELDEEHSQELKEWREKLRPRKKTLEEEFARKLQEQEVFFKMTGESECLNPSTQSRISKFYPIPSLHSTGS

SRPK1 (human) = SRPK1 (human) (UniProt Q96SB4)
STK39 (human) = STK39 (human) (UniProt Q9UEW8)
STK4 (human) = STK4 (human) (UniProt Q13043)
TEK (human) = TEK (human) (UniProt Q02763)
TNK2 (human) = TNK2 (human) (UniProt Q07912)
TYRO3 (human) = TYRO3 (human) (UniProt Q06418)
WNK3 (human) = WNK3 (human) (UniProt Q9BYP7)
Sequence of WNK3 (human) (Q9BYP7 whole entry, looked up): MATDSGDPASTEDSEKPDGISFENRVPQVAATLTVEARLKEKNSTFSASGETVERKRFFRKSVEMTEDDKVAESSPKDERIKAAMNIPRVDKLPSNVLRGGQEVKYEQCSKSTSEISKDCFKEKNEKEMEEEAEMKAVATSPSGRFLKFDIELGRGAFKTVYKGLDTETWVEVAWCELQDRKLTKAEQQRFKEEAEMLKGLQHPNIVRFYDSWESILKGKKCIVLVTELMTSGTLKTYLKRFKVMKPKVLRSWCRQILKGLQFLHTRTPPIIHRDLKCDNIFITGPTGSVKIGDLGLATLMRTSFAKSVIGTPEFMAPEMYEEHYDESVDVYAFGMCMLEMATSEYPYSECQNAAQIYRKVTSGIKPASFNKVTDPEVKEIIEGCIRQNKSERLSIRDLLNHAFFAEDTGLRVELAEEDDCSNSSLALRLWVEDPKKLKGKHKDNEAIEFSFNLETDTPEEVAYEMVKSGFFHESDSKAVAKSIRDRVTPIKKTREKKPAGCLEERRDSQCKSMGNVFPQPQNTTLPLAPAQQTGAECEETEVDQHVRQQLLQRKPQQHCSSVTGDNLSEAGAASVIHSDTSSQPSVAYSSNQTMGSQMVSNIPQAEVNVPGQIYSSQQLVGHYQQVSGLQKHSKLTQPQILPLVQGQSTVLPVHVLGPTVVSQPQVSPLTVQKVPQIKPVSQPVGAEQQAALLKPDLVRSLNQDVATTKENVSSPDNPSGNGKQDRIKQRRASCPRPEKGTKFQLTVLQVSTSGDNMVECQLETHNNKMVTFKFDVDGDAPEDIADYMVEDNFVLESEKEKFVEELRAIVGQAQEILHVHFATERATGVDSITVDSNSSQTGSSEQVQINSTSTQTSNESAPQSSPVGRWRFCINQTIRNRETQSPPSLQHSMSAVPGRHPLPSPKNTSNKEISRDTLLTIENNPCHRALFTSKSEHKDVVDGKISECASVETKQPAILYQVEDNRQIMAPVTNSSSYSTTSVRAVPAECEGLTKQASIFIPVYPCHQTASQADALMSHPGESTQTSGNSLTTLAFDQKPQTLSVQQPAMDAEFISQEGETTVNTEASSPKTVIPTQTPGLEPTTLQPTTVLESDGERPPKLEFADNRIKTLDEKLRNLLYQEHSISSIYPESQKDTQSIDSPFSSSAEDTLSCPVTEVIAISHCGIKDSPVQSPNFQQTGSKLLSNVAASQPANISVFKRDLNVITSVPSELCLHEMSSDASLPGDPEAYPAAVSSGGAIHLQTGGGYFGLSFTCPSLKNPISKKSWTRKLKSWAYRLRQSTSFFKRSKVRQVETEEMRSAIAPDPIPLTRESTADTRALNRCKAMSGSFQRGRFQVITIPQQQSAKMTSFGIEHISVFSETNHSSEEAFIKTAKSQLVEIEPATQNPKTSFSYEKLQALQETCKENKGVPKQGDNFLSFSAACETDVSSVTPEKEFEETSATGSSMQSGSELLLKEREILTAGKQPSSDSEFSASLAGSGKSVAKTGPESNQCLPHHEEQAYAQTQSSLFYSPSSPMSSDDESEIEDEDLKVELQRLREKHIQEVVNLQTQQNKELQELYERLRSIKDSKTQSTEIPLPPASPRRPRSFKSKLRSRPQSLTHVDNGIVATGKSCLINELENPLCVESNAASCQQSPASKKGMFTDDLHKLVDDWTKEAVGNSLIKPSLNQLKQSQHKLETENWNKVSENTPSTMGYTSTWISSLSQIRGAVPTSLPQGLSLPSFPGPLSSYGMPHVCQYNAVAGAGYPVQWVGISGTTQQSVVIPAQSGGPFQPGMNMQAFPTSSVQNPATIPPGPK

Sequence of ACVRL1 (human) (P37023 whole entry, looked up): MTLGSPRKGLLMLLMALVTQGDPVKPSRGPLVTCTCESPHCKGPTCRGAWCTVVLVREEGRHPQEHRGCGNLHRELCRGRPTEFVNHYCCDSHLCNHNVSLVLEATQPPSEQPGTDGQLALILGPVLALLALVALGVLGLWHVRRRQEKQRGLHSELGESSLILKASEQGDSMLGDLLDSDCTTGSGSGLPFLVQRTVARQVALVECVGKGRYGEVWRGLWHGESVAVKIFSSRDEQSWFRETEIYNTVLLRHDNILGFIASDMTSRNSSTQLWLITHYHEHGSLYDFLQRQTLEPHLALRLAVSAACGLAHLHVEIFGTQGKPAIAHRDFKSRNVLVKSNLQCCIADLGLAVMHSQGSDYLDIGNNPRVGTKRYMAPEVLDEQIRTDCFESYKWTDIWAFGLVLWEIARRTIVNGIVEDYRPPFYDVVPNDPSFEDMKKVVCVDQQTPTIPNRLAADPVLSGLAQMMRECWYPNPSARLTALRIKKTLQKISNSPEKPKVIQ

## CCN(CC)CCCCN1c2ccccc2Oc2ccc(Cl)cc21
ABL1 (human)
  residual activity: 107%
ACVRL1 (human)
  residual activity: 102%
AURKB (human)
  residual activity: 94.1%
CAMK1D (human)
  residual activity: 107%
CDK5 CDK5R1 p35 (human)
  residual activity: 90.3%
CDK6 CCND3 (human)
  residual activity: 102%
CLK3 (human)
  residual activity: 104%
CSNK1G3 (human)
  residual activity: 78.3%
EGFR (human)
  residual activity: 99.2%
EPHA5 (human)
  residual activity: 109%
EPHB2 (human)
  residual activity: 107%
HCK (human)
  residual activity: 105%
IGF1R (human)
  residual activity: 89.4%
[1]
  residual activity: 105%
LYN (human)
  residual activity: 105% and 115%
MAP3K10 (human)
  residual activity: 102%
MAP3K11 (human)
  residual activity: 99.9%
MAP3K14 (human)
  residual activity: 95.6%
MAP3K3 (human)
  residual activity: 103%
MAP3K9 (human)
  residual activity: 95.7%
MAP4K2 (human)
  residual activity: 110%
MAP4K5 (human)
  residual activity: 93.4%
MAPKAPK3 (human)
  residual activity: 105%
MARK4 (human)
  residual activity: 97.2%
PDGFRA (human)
  residual activity: 102%
PIM2 (human)
  residual activity: 109%
PKN2 (human)
  residual activity: 72.4%
PLK2 (human)
  residual activity: 103%
PRKCA (human)
  residual activity: 83%
PRKCB2 (human)
  residual activity: 102%
PRKD1 (human)
  residual activity: 101%
PRKG1 (human)
  residual activity: 91.3% and 98.8%
RPS6KA4 KD2 (human)
  residual activity: 80.8%
RPS6KB2 (human)
  residual activity: 107%
SLK (human)
  residual activity: 105%
SRPK1 (human)
  residual activity: 97.2%
STK39 (human)
  residual activity: 83.5%
STK4 (human)
  residual activity: 98.9%
TEK (human)
  residual activity: 103%
TNK2 (human)
  residual activity: 94.7%
TYRO3 (human)
  residual activity: 103%
WNK3 (human)
  residual activity: 108%

## Cn1sc(=O)n(Cc2ccccc2)c1=O
ABL1 (human)
  residual activity: 104%
ACVRL1 (human)
  residual activity: 117%
AURKB (human)
  residual activity: 102%
CAMK1D (human)
  residual activity: 97.1%
CDK5 CDK5R1 p35 (human)
  residual activity: 90.1%
CDK6 CCND3 (human)
  residual activity: 100%
CLK3 (human)
  residual activity: 83%
CSNK1G3 (human)
  residual activity: 114%
EGFR (human)
  residual activity: 105%
EPHA5 (human)
  residual activity: 103%
EPHB2 (human)
  residual activity: 88.5%
HCK (human)
  residual activity: 103%
IGF1R (human)
  residual activity: 97.1%
[1]
  residual activity: 103%
LYN (human)
  residual activity: 90.8% and 98.9%
MAP3K10 (human)
  residual activity: 99.5%
MAP3K11 (human)
  residual activity: 95.3%
MAP3K14 (human)
  residual activity: 81.6%
MAP3K3 (human)
  residual activity: 94.2%
MAP3K9 (human)
  residual activity: 99.4%
MAP4K2 (human)
  residual activity: 119%
MAP4K5 (human)
  residual activity: 107%
MAPKAPK3 (human)
  residual activity: 105%
MARK4 (human)
  residual activity: 85.1%
PDGFRA (human)
  residual activity: 84.1%
PIM2 (human)
  residual activity: 107%
PKN2 (human)
  residual activity: 97.2%
PLK2 (human)
  residual activity: 106%
PRKCA (human)
  residual activity: 71.8%
PRKCB2 (human)
  residual activity: 111%
PRKD1 (human)
  residual activity: 101%
PRKG1 (human)
  residual activity: 93.2% and 95.9%
RPS6KA4 KD2 (human)
  residual activity: 99%
RPS6KB2 (human)
  residual activity: 101%
SLK (human)
  residual activity: 84.7%
SRPK1 (human)
  residual activity: 89.8%
STK39 (human)
  residual activity: 97.9%
STK4 (human)
  residual activity: 107%
TEK (human)
  residual activity: 90.9%
TNK2 (human)
  residual activity: 101%
TYRO3 (human)
  residual activity: 99.9%
WNK3 (human)
  residual activity: 101%

## Oc1ccc(Nc2nc(-c3ccc(Cl)cc3)cs2)cc1
ABL1 (human)
  residual activity: 99.7%
ACVRL1 (human)
  residual activity: 103%
AURKB (human)
  residual activity: 102%
CAMK1D (human)
  residual activity: 103%
CDK5 CDK5R1 p35 (human)
  residual activity: 104%
CDK6 CCND3 (human)
  residual activity: 109%
CLK3 (human)
  residual activity: 92.6%
CSNK1G3 (human)
  residual activity: 103%
EGFR (human)
  residual activity: 95.3%
EPHA5 (human)
  residual activity: 92.6%
EPHB2 (human)
  residual activity: 101%
HCK (human)
  residual activity: 96.1%
IGF1R (human)
  residual activity: 102%
[1]
  residual activity: 97.1%
LYN (human)
  residual activity: 100%
MAP3K10 (human)
  residual activity: 100%
MAP3K11 (human)
  residual activity: 95.3%
MAP3K14 (human)
  residual activity: 102%
MAP3K3 (human)
  residual activity: 101%
MAP3K9 (human)
  residual activity: 80.9%
MAP4K2 (human)
  residual activity: 103%
MAP4K5 (human)
  residual activity: 110%
MAPKAPK3 (human)
  residual activity: 94.1%
MARK4 (human)
  residual activity: 103%
PDGFRA (human)
  residual activity: 101%
PIM2 (human)
  residual activity: 106%
PKN2 (human)
  residual activity: 93.8%
PLK2 (human)
  residual activity: 105%
PRKCA (human)
  residual activity: 113%
PRKCB2 (human)
  residual activity: 94.7%
PRKD1 (human)
  residual activity: 96.8%
PRKG1 (human)
  residual activity: 94.1% and 98.5%
RPS6KA4 KD2 (human)
  residual activity: 91.5%
RPS6KB2 (human)
  residual activity: 99.8%
SLK (human)
  residual activity: 110%
SRPK1 (human)
  residual activity: 103%
STK39 (human)
  residual activity: 94.2%
STK4 (human)
  residual activity: 106%
TEK (human)
  residual activity: 104%
TNK2 (human)
  residual activity: 103%
TYRO3 (human)
  residual activity: 102%
WNK3 (human)
  residual activity: 98.7%

## Cn1nc2c3c(cccc31)C(=O)c1ccccc1-2
ABL1 (human)
  residual activity: 99.1%
ACVRL1 (human)
  residual activity: 102%
AURKB (human)
  residual activity: 83.5%
CAMK1D (human)
  residual activity: 70.3%
CDK5 CDK5R1 p35 (human)
  residual activity: 105%
CDK6 CCND3 (human)
  residual activity: 101%
CLK3 (human)
  residual activity: 98.5%
CSNK1G3 (human)
  residual activity: 81.4%
EGFR (human)
  residual activity: 105%
EPHA5 (human)
  residual activity: 126%
EPHB2 (human)
  residual activity: 104%
HCK (human)
  residual activity: 94.6%
IGF1R (human)
  residual activity: 95.9%
[1]
  residual activity: 110%
LYN (human)
  residual activity: 96.1% and 97.7%
MAP3K10 (human)
  residual activity: 91.4%
MAP3K11 (human)
  residual activity: 97.2%
MAP3K14 (human)
  residual activity: 107%
MAP3K3 (human)
  residual activity: 94.4%
MAP3K9 (human)
  residual activity: 99.4%
MAP4K2 (human)
  residual activity: 75.4%
MAP4K5 (human)
  residual activity: 86%
MAPKAPK3 (human)
  residual activity: 104%
MARK4 (human)
  residual activity: 91.1%
PDGFRA (human)
  residual activity: 97.6%
PIM2 (human)
  residual activity: 105%
PKN2 (human)
  residual activity: 97.3%
PLK2 (human)
  residual activity: 93.5%
PRKCA (human)
  residual activity: 96.1%
PRKCB2 (human)
  residual activity: 97.8%
PRKD1 (human)
  residual activity: 69.3%
PRKG1 (human)
  residual activity: 93.7% and 96%
RPS6KA4 KD2 (human)
  residual activity: 105%
RPS6KB2 (human)
  residual activity: 94.7%
SLK (human)
  residual activity: 103%
SRPK1 (human)
  residual activity: 99.7%
STK39 (human)
  residual activity: 101%
STK4 (human)
  residual activity: 78.9%
TEK (human)
  residual activity: 98.2%
TNK2 (human)
  residual activity: 83.3%
TYRO3 (human)
  residual activity: 99.8%
WNK3 (human)
  residual activity: 92%
